Biological target: T1, Thermolysin (Bacillus thermoproteolyticus, UniProt P00800)
T1 sequence (P00800 whole entry): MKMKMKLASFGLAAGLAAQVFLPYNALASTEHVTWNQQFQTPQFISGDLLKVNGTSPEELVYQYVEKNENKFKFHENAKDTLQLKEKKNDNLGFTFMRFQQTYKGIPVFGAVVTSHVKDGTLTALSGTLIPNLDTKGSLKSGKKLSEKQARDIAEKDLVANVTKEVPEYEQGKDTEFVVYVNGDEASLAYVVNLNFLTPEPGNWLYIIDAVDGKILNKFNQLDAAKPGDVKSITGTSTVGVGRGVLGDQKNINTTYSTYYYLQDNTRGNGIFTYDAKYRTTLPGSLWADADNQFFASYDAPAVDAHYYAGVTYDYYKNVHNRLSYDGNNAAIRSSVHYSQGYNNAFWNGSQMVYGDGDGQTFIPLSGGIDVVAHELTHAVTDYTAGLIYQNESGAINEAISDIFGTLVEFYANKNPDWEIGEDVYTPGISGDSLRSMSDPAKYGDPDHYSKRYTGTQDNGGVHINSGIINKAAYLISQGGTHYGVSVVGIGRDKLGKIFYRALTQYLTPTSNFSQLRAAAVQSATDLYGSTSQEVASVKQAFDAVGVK
Experiment: Binding affinity to Bacillus thermoproteolyticus thermolysin by UV-VIS spectrophotometric analysis in presence of 2-furanacryloyl-Gly-Leu-NH2

Compound	Ki [nM]
CCNC(=O)[C@H](CC(C)C)NP(=O)(O)CNC(=O)OCc1ccccc1	289
CNC(=O)[C@H](CC(C)C)NP(=O)(O)CNC(=O)OCc1ccccc1	902
CC(C)C[C@H](NP(=O)(O)CNC(=O)OCc1ccccc1)C(=O)N[C@@H](C)C(=O)O	19.1
CC(C)C[C@H](NP(=O)(O)CNC(=O)OCc1ccccc1)C(=O)NCC(=O)O	472

Reference: ChEMBL document CHEMBL2169829, “Water mediated ligand functional group cooperativity: the contribution of a methyl group to binding affinity is enhanced by a COO(-) group through changes in the structure and thermodynamics of the hydration waters of ligand-thermolysin complexes” (J Med Chem, 2012)
